According to the supplement of paper PMC10307832:

Columns and labels:
Experiment in all cases: relative viability (nuclei count vs DMSO), 5 days (fraction); higher = more cells survive
NCI-H3122 = test system: NCI-H3122
Summary of the method: (§1)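 One day after seeding in 1536-well plates, lung cancer cell lines were dosed by pin tool. Dosing was either single-drug or a fixed anchor-drug dose plus five library-drug doses (not always all listed) in √10 steps. After 5 days, nuclei were stained in one fix-and-stain step and counted on 4× images, and relative viability is the nuclei count of treated wells over that of vehicle wells, given as the median of duplicate plates.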

NCI-H2405 = test system: NCI-H2405
Summary of the method: as §1

NCI-H647 = test system: NCI-H647
Summary of the method: as §1

PC-14 = test system: PC-14
Summary of the method: as §1

HCC-15 = test system: HCC-15
Summary of the method: as §1

NCI-H1793 = test system: NCI-H1793
Summary of the method: as §1

EPLC-272H = test system: EPLC-272H
Summary of the method: as §1

LOU-NH91 = test system: LOU-NH91
Summary of the method: as §1

NCI-H322M = test system: NCI-H322M
Summary of the method: as §1

H3255 = test system: H3255
Summary of the method: as §1

NCI-H2023 = test system: NCI-H2023
Summary of the method: as §1

COR-L23 = test system: COR-L23
Summary of the method: as §1

NCI-H441 = test system: NCI-H441
Summary of the method: as §1

201T = test system: 201T
Summary of the method: as §1

UMC-11 = test system: UMC-11
Summary of the method: as §1

NCI-H520 = test system: NCI-H520
Summary of the method: as §1

NCI-H2347 = test system: NCI-H2347
Summary of the method: as §1

NCI-H1734 = test system: NCI-H1734
Summary of the method: as §1

SW 900 = test system: SW 900
Summary of the method: as §1

NCI-H1650 = test system: NCI-H1650
Summary of the method: as §1

NCI-H2170 = test system: NCI-H2170
Summary of the method: as §1

COc1cc2nccc(Oc3ccc(NC(=O)Nc4cc(C)on4)c(Cl)c3)c2cc1OC [Tivozanib] + O=C(CCCCCCC(=O)Nc1ccccc1)NO [Vorinostat] (partner 1 µM)
relative viability (NCI-H3122; first compound 0.005 µM): 0.644 | relative viability (NCI-H3122; first compound 0.01581 µM): 1.12 | relative viability (NCI-H3122; first compound 0.05 µM): 0.97 | relative viability (NCI-H3122; first compound 0.1581 µM): 1.03 | relative viability (NCI-H3122; first compound 0.5 µM): 0.822 | relative viability (NCI-H2405; first compound 0.005 µM): 0.376 | relative viability (NCI-H2405; first compound 0.01581 µM): 1.03 | relative viability (NCI-H2405; first compound 0.05 µM): 1.05 | relative viability (NCI-H2405; first compound 0.1581 µM): 0.854 | relative viability (NCI-H2405; first compound 0.5 µM): 0.788 | relative viability (NCI-H647; first compound 0.005 µM): 0.555 | relative viability (NCI-H647; first compound 0.01581 µM): 0.654 | relative viability (NCI-H647; first compound 0.05 µM): 0.692 | relative viability (NCI-H647; first compound 0.1581 µM): 0.631 | relative viability (NCI-H647; first compound 0.5 µM): 0.48 | relative viability (PC-14; first compound 0.005 µM): 0.728 | relative viability (PC-14; first compound 0.01581 µM): 0.792 | relative viability (PC-14; first compound 0.05 µM): 0.711 | relative viability (PC-14; first compound 0.1581 µM): 0.695 | relative viability (PC-14; first compound 0.5 µM): 0.58 | relative viability (HCC-15; first compound 0.005 µM): 0.797 | relative viability (HCC-15; first compound 0.01581 µM): 0.896 | relative viability (HCC-15; first compound 0.05 µM): 0.857 | relative viability (HCC-15; first compound 0.1581 µM): 0.863 | relative viability (HCC-15; first compound 0.5 µM): 0.886 | relative viability (NCI-H1793; first compound 0.005 µM): 0.606 | relative viability (NCI-H1793; first compound 0.01581 µM): 0.706 | relative viability (NCI-H1793; first compound 0.05 µM): 0.778 | relative viability (NCI-H1793; first compound 0.5 µM): 0.742 | relative viability (EPLC-272H; first compound 0.005 µM): 0.452 | relative viability (EPLC-272H; first compound 0.01581 µM): 0.617 | relative viability (EPLC-272H; first compound 0.05 µM): 0.385 | relative viability (EPLC-272H; first compound 0.1581 µM): 0.435 | relative viability (EPLC-272H; first compound 0.5 µM): 0.281 | relative viability (LOU-NH91; first compound 0.005 µM): 0.754 | relative viability (LOU-NH91; first compound 0.01581 µM): 0.952 | relative viability (LOU-NH91; first compound 0.05 µM): 0.908 | relative viability (LOU-NH91; first compound 0.1581 µM): 0.782 | relative viability (LOU-NH91; first compound 0.5 µM): 0.761 | relative viability (NCI-H322M; first compound 0.005 µM): 0.768 | relative viability (NCI-H322M; first compound 0.01581 µM): 0.857 | relative viability (NCI-H322M; first compound 0.05 µM): 0.87 | relative viability (NCI-H322M; first compound 0.1581 µM): 0.665 | relative viability (NCI-H322M; first compound 0.5 µM): 0.744 | relative viability (H3255; first compound 0.005 µM): 0.633 | relative viability (H3255; first compound 0.01581 µM): 0.794 | relative viability (H3255; first compound 0.05 µM): 0.885 | relative viability (H3255; first compound 0.1581 µM): 0.888 | relative viability (H3255; first compound 0.5 µM): 0.611 | relative viability (NCI-H2023; first compound 0.005 µM): 0.488 | relative viability (NCI-H2023; first compound 0.01581 µM): 0.694 | relative viability (NCI-H2023; first compound 0.05 µM): 0.703 | relative viability (NCI-H2023; first compound 0.1581 µM): 0.48 | relative viability (NCI-H2023; first compound 0.5 µM): 0.441 | relative viability (COR-L23; first compound 0.005 µM): 0.444 | relative viability (COR-L23; first compound 0.01581 µM): 0.454 | relative viability (COR-L23; first compound 0.05 µM): 0.607 | relative viability (COR-L23; first compound 0.1581 µM): 0.33 | relative viability (COR-L23; first compound 0.5 µM): 0.311 | relative viability (NCI-H441; first compound 0.005 µM): 0.765 | relative viability (NCI-H441; first compound 0.01581 µM): 0.771 | relative viability (NCI-H441; first compound 0.05 µM): 0.743 | relative viability (NCI-H441; first compound 0.1581 µM): 0.801 | relative viability (NCI-H441; first compound 0.5 µM): 0.745 | relative viability (201T; first compound 0.005 µM): 0.983 | relative viability (201T; first compound 0.01581 µM): 0.99 | relative viability (201T; first compound 0.05 µM): 1 | relative viability (201T; first compound 0.1581 µM): 0.899 | relative viability (201T; first compound 0.5 µM): 0.974 | relative viability (UMC-11; first compound 0.005 µM): 0.404 | relative viability (UMC-11; first compound 0.01581 µM): 0.36 | relative viability (UMC-11; first compound 0.05 µM): 0.349 | relative viability (UMC-11; first compound 0.1581 µM): 0.328 | relative viability (UMC-11; first compound 0.5 µM): 0.329 | relative viability (NCI-H520; first compound 0.005 µM): 0.729 | relative viability (NCI-H520; first compound 0.01581 µM): 0.754 | relative viability (NCI-H520; first compound 0.05 µM): 0.691 | relative viability (NCI-H520; first compound 0.1581 µM): 0.675 | relative viability (NCI-H520; first compound 0.5 µM): 0.607 | relative viability (NCI-H2347; first compound 0.005 µM): 0.612 | relative viability (NCI-H2347; first compound 0.01581 µM): 0.577 | relative viability (NCI-H2347; first compound 0.05 µM): 0.61 | relative viability (NCI-H2347; first compound 0.1581 µM): 0.797 | relative viability (NCI-H2347; first compound 0.5 µM): 0.517 | relative viability (NCI-H1734; first compound 0.005 µM): 0.685 | relative viability (NCI-H1734; first compound 0.01581 µM): 0.79 | relative viability (NCI-H1734; first compound 0.05 µM): 0.813 | relative viability (NCI-H1734; first compound 0.1581 µM): 0.578 | relative viability (NCI-H1734; first compound 0.5 µM): 0.57 | relative viability (SW 900; first compound 0.005 µM): 0.459 | relative viability (SW 900; first compound 0.01581 µM): 0.481 | relative viability (SW 900; first compound 0.05 µM): 0.627 | relative viability (SW 900; first compound 0.5 µM): 0.464 | relative viability (NCI-H1650; first compound 0.005 µM): 0.638 | relative viability (NCI-H1650; first compound 0.01581 µM): 0.529 | relative viability (NCI-H1650; first compound 0.05 µM): 0.712 | relative viability (NCI-H1650; first compound 0.1581 µM): 0.606 | relative viability (NCI-H1650; first compound 0.5 µM): 0.545 | relative viability (NCI-H2170; first compound 0.005 µM): 0.74 | relative viability (NCI-H2170; first compound 0.01581 µM): 0.782 | relative viability (NCI-H2170; first compound 0.05 µM): 0.856 | relative viability (NCI-H2170; first compound 0.5 µM): 0.816
